# From patent US7820650B2, “Antifungal 4-substituted 5,6-dihydro-4H-pyrrolo [1,2-a][1,4]benzodiazepines” (Janssen Pharmaceutica NV, priority 2000, dated 2010)
# Key:
# Assay in all cases: Determination of fungal susceptibility (MIC, microdilution in CYG medium)
# Type in all cases: cell-based
# [1] = system: Trichophyton mentagrophytes; details: single isolate, 5 days at 30° C., growth (OD 405 nm) inhibited to 35% of control or less
# Protocol: (§1) A panel single isolates of the dermatophytes Sporothrix schenckii; Microsporum canis; Trichophyton rubrum; Trichophyton mentagrophyte; Candida parapsilosis; Cryptococcus neoformans; and Aspergillus fumigatus were used to evaluate the activity of the test compounds in vitro. Inocula were prepared as broth cultures (yeasts) or as suspensions of fungal material made from agar slope cultures (moulds). The test compounds were pipetted from dimethylsulfoxide stock solution into water to provide a series of 10-fold dilutions. The fungal inocula were suspended in the growth medium CYG (F.C. Odds, Journal of Clinical Microbiology, 29, 2735-2740, 1991) at approximately 50,000 colony-forming units (CFU) per ml and added to the aqueous test drugs. The cultures were set up in the 96 wells of plastic microdilution plates and they were incubated for 2 days at 37° C. (Candida spp.) or for 5 days at 30° C. (other fungi). Growth in the microcultures was measured by their optical density (OD) measured at a wavelength of 405 nm. The OD for cultures with test compounds was calculated as a percentage of the OD for control cultures, i.e. the OD for cultures without test compounds. Inhibition of growth to 35% of control or less was recorded as significant inhibition. Minimal inhibitory concentration (MIC; in 10^−6 M) of some of the compounds of formula (I) for the tested species are listed in Table.
# Aspergillus fumigatus = details: single isolate, 5 days at 30° C., growth (OD 405 nm) inhibited to 35% of control or less
# Protocol: as §1
# Microsporum canis = details: single isolate, 5 days at 30° C., growth (OD 405 nm) inhibited to 35% of control or less
# Protocol: as §1
# Candida parapsilosis = details: single isolate, 2 days at 37° C., growth (OD 405 nm) inhibited to 35% of control or less
# Protocol: as §1
# Trichophyton rubrum = details: single isolate, 5 days at 30° C., growth (OD 405 nm) inhibited to 35% of control or less
# Protocol: as §1
# Sporothrix schenckii = details: single isolate, 5 days at 30° C., growth (OD 405 nm) inhibited to 35% of control or less
# Protocol: as §1
# Cryptococcus neoformans = details: single isolate, 5 days at 30° C., growth (OD 405 nm) inhibited to 35% of control or less
# Protocol: as §1
Compound,"MIC values, Trichophyton mentagrophytes [1]","MIC values, Aspergillus fumigatus (Aspergillus fumigatus)","MIC values, Microsporum canis (Microsporum canis)","MIC values, Candida parapsilosis (Candida parapsilosis)","MIC values, Trichophyton rubrum (Trichophyton rubrum)","MIC values, Sporothrix schenkii (Sporothrix schenckii)","MIC values, Cryptococcus neoformans (Cryptococcus neoformans)"
CCc1ccc(C2NCc3cc(Cl)ccc3-n3cccc32)cc1 (stereo not drawn) [Comp. 11],3.2 10^−6 M,>10 10^−6 M,>10 10^−6 M,>10 10^−6 M,3.2 10^−6 M,>10 10^−6 M,>10 10^−6 M
Br.COc1ccc(C2NCc3c(Cl)cccc3-n3cccc32)cc1 (stereo not drawn) [Comp. 1],2.1 10^−6 M,10 10^−6 M,5.5 10^−6 M,>10 10^−6 M,2.1 10^−6 M,>10 10^−6 M,>10 10^−6 M
Br.CCc1ccc(C2NCc3ccccc3-n3cccc32)cc1 (stereo not drawn) [Comp. 13],3.2 10^−6 M,>10 10^−6 M,>10 10^−6 M,>10 10^−6 M,1 10^−6 M,>10 10^−6 M,>10 10^−6 M
Br.CC(C)(C)c1ccc(C2NCc3c(Cl)cccc3-n3cccc32)cc1 (stereo not drawn) [Comp. 7],1 10^−6 M,>10 10^−6 M,0.32 10^−6 M,10 10^−6 M,0.1 10^−6 M,10 10^−6 M,>10 10^−6 M
Br.Cc1ccc(C2NCc3c(Cl)cccc3-n3cccc32)cc1 (stereo not drawn) [Comp. 5],1 10^−6 M,>10 10^−6 M,1 10^−6 M,>10 10^−6 M,0.32 10^−6 M,>10 10^−6 M,>10 10^−6 M
"CCc1ccc(C2c3cccn3-c3cccc(Cl)c3CN2C)cc1 (stereo not drawn) [Comp. 10, 4-(4′-ethylphenyl)-5-methyl-7-chlorobenzo[1,2]-pyrrolo-[1,2a][1,4]diazepine]",10 10^−6 M,>10 10^−6 M,>10 10^−6 M,>10 10^−6 M,3.2 10^−6 M,>10 10^−6 M,>10 10^−6 M
Br.CCCCc1ccc(C2NCc3c(Cl)cccc3-n3cccc32)cc1 (stereo not drawn) [Comp. 8],1 10^−6 M,>10 10^−6 M,1 10^−6 M,>10 10^−6 M,0.1 10^−6 M,>10 10^−6 M,>10 10^−6 M
Br.N#Cc1ccc(C2NCc3ccc(Cl)cc3-n3cccc32)cc1 (stereo not drawn) [Comp. 20],>10 10^−6 M,>10 10^−6 M,>10 10^−6 M,>10 10^−6 M,0.32 10^−6 M,>10 10^−6 M,>10 10^−6 M
Br.CC(C)c1ccc(C2NCc3c(Cl)cccc3-n3cccc32)cc1 (stereo not drawn) [Comp. 6],1 10^−6 M,>10 10^−6 M,0.32 10^−6 M,10 10^−6 M,0.32 10^−6 M,>10 10^−6 M,>10 10^−6 M
Br.CCc1ccc(C2NCc3ccc(Cl)cc3-n3cccc32)cc1 (stereo not drawn) [Comp. 16],1 10^−6 M,>10 10^−6 M,1 10^−6 M,>10 10^−6 M,0.1 10^−6 M,>10 10^−6 M,>10 10^−6 M
Br.CC(C)c1ccc(C2NCc3ccc(Cl)cc3-n3cccc32)cc1 (stereo not drawn) [Comp. 18],1 10^−6 M,>10 10^−6 M,>10 10^−6 M,>10 10^−6 M,1 10^−6 M,>10 10^−6 M,>10 10^−6 M
Br.CCCc1ccc(C2NCc3c(Cl)cccc3-n3cccc32)cc1 (stereo not drawn) [Comp. 9],0.32 10^−6 M,>10 10^−6 M,0.32 10^−6 M,3.2 10^−6 M,0.1 10^−6 M,>10 10^−6 M,>10 10^−6 M
CC(C)c1ccc(C2NCc3c(F)cccc3-n3cccc32)cc1 (stereo not drawn) [Comp. 14],1 10^−6 M,>10 10^−6 M,10 10^−6 M,>10 10^−6 M,0.32 10^−6 M,>10 10^−6 M,>10 10^−6 M
Br.FC(F)(F)c1cccc(C2NCc3c(Cl)cccc3-n3cccc32)c1 (stereo not drawn) [Comp. 3],3.2 10^−6 M,10 10^−6 M,2.1 10^−6 M,>10 10^−6 M,2.1 10^−6 M,>10 10^−6 M,>10 10^−6 M
CCc1ccc(C2=NCc3ccccc3-n3cccc32)cc1 [Comp. 21],0.32 10^−6 M,1 10^−6 M,0.32 10^−6 M,3.2 10^−6 M,0.03 10^−6 M,10 10^−6 M,>10 10^−6 M
Br.CCc1ccc(C2NCc3c(Cl)cccc3-n3cccc32)cc1 (stereo not drawn) [Comp. 2],0.32 10^−6 M,3.2 10^−6 M,0.32 10^−6 M,1 10^−6 M,0.03 10^−6 M,>10 10^−6 M,>10 10^−6 M
Br.Cc1ccc(C2NCc3ccc(Cl)cc3-n3cccc32)cc1 (stereo not drawn) [Comp. 19],3.2 10^−6 M,>10 10^−6 M,10 10^−6 M,>10 10^−6 M,0.32 10^−6 M,>10 10^−6 M,>10 10^−6 M
CCc1ccc(C2NCc3c(F)cccc3-n3cccc32)cc1 (stereo not drawn) [Comp. 15],1 10^−6 M,10 10^−6 M,3.2 10^−6 M,10 10^−6 M,0.32 10^−6 M,>10 10^−6 M,>10 10^−6 M
Br.Clc1cccc2c1CNC(c1ccsc1)c1cccn1-2 (stereo not drawn) [Comp. 12],>10 10^−6 M,>10 10^−6 M,>10 10^−6 M,>10 10^−6 M,3.2 10^−6 M,>10 10^−6 M,>10 10^−6 M
Br.CCOc1ccc(C2NCc3ccc(Cl)cc3-n3cccc32)cc1 (stereo not drawn) [Comp. 17],10 10^−6 M,>10 10^−6 M,>10 10^−6 M,>10 10^−6 M,10 10^−6 M,>10 10^−6 M,>10 10^−6 M
Br.CC(C)c1ccc(C2NCc3ccccc3-n3cccc32)cc1 (stereo not drawn) [Comp. 4],3.2 10^−6 M,>10 10^−6 M,10 10^−6 M,>10 10^−6 M,3.2 10^−6 M,>10 10^−6 M,>10 10^−6 M
